In PubChem BioAssay AID1918994 (Molecular Pharmacology Branch, DTP, NCI, 2023):

Test system: 292921-168-R-J2-PDC complex spheroid growth
Experiment: Anticancer human tumor 292921-168-R-J2-PDC patient-derived pancreatic carcinoma cell line growth inhibition [AhR]
Conditions: for IC50: curve of first compound; for viability, T/C: stronger effect = lower value
Method in brief: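 Complex tumor spheroids co-cultured with HUVEC and human MSC stroma; AhR antagonists tested in combination with standard-of-care and investigational agents. Top concentration at or near clinical Cmax (else 10 microM), half-log dilutions; growth expressed as percent test/control.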

[1] = second compound 0.1 µM, first compound 0.0316 µM
[2] = second compound 0.1 µM, first compound 0.1 µM
[3] = second compound 0.316 µM, first compound 0.0316 µM
[4] = second compound 0.316 µM, first compound 0.1 µM
[5] = second compound 1 µM, first compound 0.0316 µM
[6] = second compound 1 µM, first compound 0.1 µM
[7] = second compound 3.16 µM, first compound 0.0316 µM
[8] = second compound 3.16 µM, first compound 0.1 µM
[9] = second compound 10 µM, first compound 0.0316 µM
[10] = second compound 10 µM, first compound 0.1 µM
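Note: spheroids exposed to compounds for seven days after three days of growth.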

Work on `CC[C@@]1(O)C(=O)OCc2c1cc1n(c2=O)Cc2cc3c(CN(C)C)c(O)ccc3nc2-1` + Cc1cncc(-c2nc(NCCc3c[nH]c4ccccc34)c3ncn(C(C)C)c3n2)c1 yielded an IC50 (second compound 0.1 µM) of 39.2 nM, an IC50 (second compound 0.316 µM) of 28.1 nM and an IC50 (second compound 1 µM) of 30.2 nM. For the same molecule, the IC50 (second compound 3.16 µM) was 21 nM, the IC50 (second compound 10 µM) was 1.19 nM and the viability, T/C (second compound 0.1 µM, first compound 0.000316 µM) was 90.2%. The viability, T/C (second compound 0.1 µM, first compound 0.001 µM) was 90.4%, the viability, T/C (second compound 0.1 µM, first compound 0.00316 µM) was 89.5% and the viability, T/C (second compound 0.1 µM, first compound 0.01 µM) was 68.1%. It also gave a viability, T/C [1] of 58.9%, a viability, T/C [2] of 23.3% and a viability, T/C (second compound 0.316 µM, first compound 0.000316 µM) of 89.1%. The viability, T/C (second compound 0.316 µM, first compound 0.001 µM) was 92.8%, the viability, T/C (second compound 0.316 µM, first compound 0.00316 µM) was 87.8% and the viability, T/C (second compound 0.316 µM, first compound 0.01 µM) was 67.4%. For the same molecule, the viability, T/C [3] was 49.6%, the viability, T/C [4] was 23.7% and the viability, T/C (second compound 1 µM, first compound 0.000316 µM) was 91%. The viability, T/C (second compound 1 µM, first compound 0.001 µM) was 90.6%, the viability, T/C (second compound 1 µM, first compound 0.00316 µM) was 80.9% and the viability, T/C (second compound 1 µM, first compound 0.01 µM) was 60.3%. For the same molecule, the viability, T/C [5] was 54%, the viability, T/C [6] was 24.1% and the viability, T/C (second compound 3.16 µM, first compound 0.000316 µM) was 69.9%. The viability, T/C (second compound 3.16 µM, first compound 0.001 µM) was 67.7%, the viability, T/C (second compound 3.16 µM, first compound 0.00316 µM) was 73.2% and the viability, T/C (second compound 3.16 µM, first compound 0.01 µM) was 59.4%. It also gave a viability, T/C [7] of 44.2%, a viability, T/C [8] of 22.2% and a viability, T/C (second compound 10 µM, first compound 0.000316 µM) of 52.1%. It also gave a viability, T/C (second compound 10 µM, first compound 0.001 µM) of 49.1%, a viability, T/C (second compound 10 µM, first compound 0.00316 µM) of 50.1% and a viability, T/C (second compound 10 µM, first compound 0.01 µM) of 37.5%. For the same molecule, the viability, T/C [9] was 33.4% and the viability, T/C [10] was 24.2%.

Work on `CCc1c2c(nc3ccc(O)cc13)-c1cc3c(c(=O)n1C2)COC(=O)[C@]3(O)CC` + Cc1cncc(-c2nc(NCCc3c[nH]c4ccccc34)c3ncn(C(C)C)c3n2)c1 yielded an IC50 (second compound 0.1 µM) of 2.91 nM, an IC50 (second compound 0.316 µM) of 2.89 nM and an IC50 (second compound 1 µM) of 1.92 nM. For the same molecule, the IC50 (second compound 3.16 µM) was < 0.949 nM, the IC50 (second compound 10 µM) was < 0.949 nM and the viability, T/C (second compound 0.1 µM, first compound 0.000949 µM) was 62.5%. The viability, T/C (second compound 0.1 µM, first compound 0.003 µM) was 50.5%, the viability, T/C (second compound 0.1 µM, first compound 0.00949 µM) was 22.7% and the viability, T/C (second compound 0.1 µM, first compound 0.03 µM) was 11.1%. It also gave a viability, T/C (second compound 0.1 µM, first compound 0.0949 µM) of 5.94%, a viability, T/C (second compound 0.1 µM, first compound 0.3 µM) of 3.28% and a viability, T/C (second compound 0.316 µM, first compound 0.000949 µM) of 64.3%. The viability, T/C (second compound 0.316 µM, first compound 0.003 µM) was 50.4%, the viability, T/C (second compound 0.316 µM, first compound 0.00949 µM) was 23.2% and the viability, T/C (second compound 0.316 µM, first compound 0.03 µM) was 11.7%. It also gave a viability, T/C (second compound 0.316 µM, first compound 0.0949 µM) of 5.74%, a viability, T/C (second compound 0.316 µM, first compound 0.3 µM) of 3.22% and a viability, T/C (second compound 1 µM, first compound 0.000949 µM) of 57.6%. The viability, T/C (second compound 1 µM, first compound 0.003 µM) was 45.8%, the viability, T/C (second compound 1 µM, first compound 0.00949 µM) was 22.5% and the viability, T/C (second compound 1 µM, first compound 0.03 µM) was 11.6%. It also gave a viability, T/C (second compound 1 µM, first compound 0.0949 µM) of 6.94%, a viability, T/C (second compound 1 µM, first compound 0.3 µM) of 4.02% and a viability, T/C (second compound 3.16 µM, first compound 0.000949 µM) of 44.6%. For the same molecule, the viability, T/C (second compound 3.16 µM, first compound 0.003 µM) was 35.2%, the viability, T/C (second compound 3.16 µM, first compound 0.00949 µM) was 19.6% and the viability, T/C (second compound 3.16 µM, first compound 0.03 µM) was 11.1%. It also gave a viability, T/C (second compound 3.16 µM, first compound 0.0949 µM) of 6.69%, a viability, T/C (second compound 3.16 µM, first compound 0.3 µM) of 3.97% and a viability, T/C (second compound 10 µM, first compound 0.000949 µM) of 36.7%. It also gave a viability, T/C (second compound 10 µM, first compound 0.003 µM) of 28.9%, a viability, T/C (second compound 10 µM, first compound 0.00949 µM) of 21.7% and a viability, T/C (second compound 10 µM, first compound 0.03 µM) of 14.2%. The viability, T/C (second compound 10 µM, first compound 0.0949 µM) was 9.49% and the viability, T/C (second compound 10 µM, first compound 0.3 µM) was 6.16%.

For `Nc1ccn(C2OC(CO)C(O)C2(F)F)c(=O)n1` (stereo not given) + Cc1cncc(-c2nc(NCCc3c[nH]c4ccccc34)c3ncn(C(C)C)c3n2)c1, the IC50 (second compound 0.1 µM) was < 31.6 nM, the IC50 (second compound 0.316 µM) was < 31.6 nM and the IC50 (second compound 1 µM) was < 31.6 nM. The IC50 (second compound 3.16 µM) was < 31.6 nM, the IC50 (second compound 10 µM) was < 31.6 nM and the viability, T/C [1] was 8.94%. The viability, T/C [2] was 10.1%, the viability, T/C (second compound 0.1 µM, first compound 0.316 µM) was 9.38% and the viability, T/C (second compound 0.1 µM, first compound 1 µM) was 9.84%. For the same molecule, the viability, T/C (second compound 0.1 µM, first compound 3.16 µM) was 9.57%, the viability, T/C (second compound 0.1 µM, first compound 10 µM) was 7.01% and the viability, T/C [3] was 10.2%. It also gave a viability, T/C [4] of 9.23%, a viability, T/C (second compound 0.316 µM, first compound 0.316 µM) of 9.06% and a viability, T/C (second compound 0.316 µM, first compound 1 µM) of 8.59%. For the same molecule, the viability, T/C (second compound 0.316 µM, first compound 3.16 µM) was 9.76%, the viability, T/C (second compound 0.316 µM, first compound 10 µM) was 6.34% and the viability, T/C [5] was 12%. The viability, T/C [6] was 9.47%, the viability, T/C (second compound 1 µM, first compound 0.316 µM) was 9.26% and the viability, T/C (second compound 1 µM, first compound 1 µM) was 9.49%. For the same molecule, the viability, T/C (second compound 1 µM, first compound 3.16 µM) was 8.78%, the viability, T/C (second compound 1 µM, first compound 10 µM) was 7.47% and the viability, T/C [7] was 13.8%. It also gave a viability, T/C [8] of 12.3%, a viability, T/C (second compound 3.16 µM, first compound 0.316 µM) of 10.2% and a viability, T/C (second compound 3.16 µM, first compound 1 µM) of 11.6%. For the same molecule, the viability, T/C (second compound 3.16 µM, first compound 3.16 µM) was 11.6%, the viability, T/C (second compound 3.16 µM, first compound 10 µM) was 8.76% and the viability, T/C [9] was 29.8%. The viability, T/C [10] was 21.1%, the viability, T/C (second compound 10 µM, first compound 0.316 µM) was 19.3% and the viability, T/C (second compound 10 µM, first compound 1 µM) was 15.2%. For the same molecule, the viability, T/C (second compound 10 µM, first compound 3.16 µM) was 15.8% and the viability, T/C (second compound 10 µM, first compound 10 µM) was 13.4%.
